Laboratory results taken from patent publication US20130345215A1, “PYRAZOLOPYRIMIDONE AND PYRAZOLOPYRIDONE INHIBITORS OF TANKYRASE” (Genentech, Inc., priority 2012, published 2013).
Like-named read-outs stand apart in the source and are kept apart here.

How the values were obtained:
Tankyrase 1 (TNKS1) = molecular target: T1, Tankyrase 1 (TNKS1) (Homo sapiens, UniProt O95271); test: μHTS-TNKS-IWR2 TR-FRET Binding Assay (Example 118), His6-TNKS1
T1 construct: His6-TNKS1, MW=28.2 KDa (construct: 1088-1327, 1266M)
T1 sequence (O95271 1088-1327): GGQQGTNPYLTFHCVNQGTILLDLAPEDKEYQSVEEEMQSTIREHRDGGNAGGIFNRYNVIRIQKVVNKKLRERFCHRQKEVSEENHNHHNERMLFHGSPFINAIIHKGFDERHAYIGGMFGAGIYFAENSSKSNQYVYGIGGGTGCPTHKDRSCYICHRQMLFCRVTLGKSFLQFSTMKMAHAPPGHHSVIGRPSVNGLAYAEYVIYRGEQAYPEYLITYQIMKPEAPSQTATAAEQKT
How it was run: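 His6-TNKS1 binding to biotin-IWR2 probe measured by TR-FRET (Eu/APC, 3.5 nM/50 nM stock) in pH 7.4 Tris buffer with DTT, BSA and NP-40; TNKS1 added from 300 nM 5× stock. Compound pre-incubated with probe and enzyme 30 min at 26 °C, then detection reagents 60 min at 26 °C; single point.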

tankyrase 2 (TNKS2) = molecular target: T2, tankyrase 2 (TNKS2) (Homo sapiens, UniProt Q9H2K2); test: μHTS-TNKS-IWR2 TR-FRET Binding Assay (Example 118), His6-TNKS2 substituted; settings: procedure in Example 118 with His6-TNKS2
T2 construct: His6-tankyrase 2 (construct: 934-1166) (His6-TNKS2)
T2 sequence (Q9H2K2 934-1166): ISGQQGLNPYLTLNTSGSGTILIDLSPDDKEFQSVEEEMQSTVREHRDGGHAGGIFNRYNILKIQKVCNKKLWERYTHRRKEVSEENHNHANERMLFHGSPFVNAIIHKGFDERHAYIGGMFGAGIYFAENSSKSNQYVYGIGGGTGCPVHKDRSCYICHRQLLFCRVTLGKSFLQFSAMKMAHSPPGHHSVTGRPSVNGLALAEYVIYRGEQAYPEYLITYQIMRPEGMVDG

Molecule	IC50 (Tankyrase 1 (TNKS1)) [nM]	IC50 (tankyrase 2 (TNKS2)) [nM]	IC50 (Tankyrase 1 (TNKS1); Compounds I-1 to I-58, procedure in Example 118 (TR-FRET, Biotin-IWR2 60 nM, TNKS 60 nM), read-out: TNKS1 (IC50)) [nM]
Cn1ncc2c(=O)[nH]c(-c3ccc(C(F)(F)F)nc3)cc21 [Compound I-29, 1-methyl-6-[6-(trifluoromethyl)-3-pyridyl]-5H-pyrazolo[4 3-c]pyridin-4-one]	151	104	–
Cn1ncc2c(=O)[nH]c(-c3ccc(C(F)(F)F)cc3)cc21 [Compound I-13, 1-methyl-6-[4-(trifluoromethyl)phenyl]-5H-pyrazolo[4 3-c]pyridin-4-one]	32	32.5	–
6-[4-(3 5-dichloro-4- pyridyl)piperazin-1-yl]-1- methyl-5H-pyrazolo[4 3- c]pyridin-4-one [Compound I-47]	–	29.1	26
Cn1ncc2c(=O)[nH]c(N3CCN(c4ccc(F)cc4S(C)(=O)=O)CC3)nc21 [Compound I-22, 6-[4-(4-fluoro-2-methylsulfonyl-phenyl)piperazin-1-yl]-1-methyl-5H-pyrazolo[3 4-d]pyrimidin-4-one]	44	55	–
Cn1ncc2c(=O)[nH]c(N3CCN(c4ccccc4C#N)CC3)nc21 [Compound I-15, 2-[4-(1-methyl-4-oxo-5H-pyrazolo[3 4-d]pyrimidin-6-yl)piperazin-1-yl]benzonitrile]	74	95.2	–
O=c1[nH]c(N2CCN(c3ccccc3F)CC2)nc2[nH]ncc12 [Compound I-10, 6-[4-(2-fluorophenyl)piperazin-1-yl]-1 5-dihydropyrazolo[3 4-d]pyrimidin-4-one]	147	376	–
Cn1ncc2c(=O)[nH]c(N3CCN(c4ccc(S(C)(=O)=O)cc4F)CC3)nc21 [Compound I-21, 6-[4-(2-fluoro-4-methylsulfonyl-phenyl)piperazin-1-yl]-1-methyl-5H-pyrazolo[3 4-d]pyrimidin-4-one]	55	81.5	–
